Here are results for six molecules from paper PMC6225228, “Design, Synthesis and Evaluation of N-pyrazinylbenzamides as Potential Antimycobacterial Agents” (Molecules : A Journal of Synthetic Chemistry and Natural …, 2018).

Each structure is given as a SMILES string. ≈ marks a conversion by molar mass, not a printed value. Read-outs that look alike come from different tables or passages of the source. Bounds are passed on as bounds.

Holding throughout (type): cell-based
In assay [1] the test system is Mycobacterium smegmatis CCM 4622 (ATCC 607). The experiment in a line: Antimycobacterial microdilution, M. smegmatis. Conditions: Middlebrook 7H9 with OADC, resazurin; for MIC: Mycolicibacterium smegmatis, read-out: M. smeg. ATCC 607 MIC.
The test system of assay [2] is Candida albicans ATCC 44859. The experiment in a line: Antifungal microdilution broth, CA. The conditions noted are these: Candida albicans, read-out: MIC CA.
The subject of the next assay is Candida tropicalis 156. As to the kind of experiment: Antifungal microdilution broth, CT. The conditions noted are these: read-out: MIC CT.
The subject of another assay is Candida krusei E28. As to the kind of experiment: Antifungal microdilution broth, CK. The conditions noted are these: Pichia kudriavzevii, read-out: MIC CK.
The subject of another assay is Candida glabrata 20/I. The experiment in a line: Antifungal microdilution broth, CG. The conditions noted are these: Nakaseomyces glabratus, 20/I, read-out: MIC CG.
The next assay has as its system Trichosporon asahii 1188. The experiment in a line: Antifungal microdilution broth, TA. The conditions noted are these: read-out: MIC TA.
Assay [3] deals with Aspergillus fumigatus 231. As to the kind of experiment: Antifungal microdilution broth, AF. The conditions noted are these: read-out: MIC AF.
The subject of assay [4] is Lichtheimia corymbifera 272. The experiment in a line: Antifungal microdilution broth, LC. The conditions noted are these: read-out: MIC LC.
Assay [5] deals with Trichophyton interdigitale 445. As to the kind of experiment: Antifungal microdilution broth, TI. The conditions noted are these: read-out: MIC TI.
Assay [6] has as its system Staphylococcus aureus CCM 4516/08. As to the kind of experiment: Antibacterial microdilution broth, SA. The conditions noted are these: Staphylococcus aureus, read-out: MIC SA.
In assay [7] the test system is Staphylococcus aureus H 5996/08 methicillin resistant. As to the kind of experiment: microbe, parasite or virus in culture. The conditions noted are these: Staphylococcus aureus, MRSA, read-out: MIC MRSA.
Assay [8] deals with Staphylococcus epidermidis H 6966/08. The experiment in a line: Antibacterial microdilution broth, SE. The conditions noted are these: Staphylococcus epidermidis, read-out: MIC SE.
For assay [9], the system named is Enterococcus sp. J 14365/08. As to the kind of experiment: Antibacterial microdilution broth, EF. The conditions noted are these: Enterococcus, read-out: MIC EF.
The subject of assay [10] is Escherichia coli CCM 4517. As to the kind of experiment: Antibacterial microdilution broth, EC. The conditions noted are these: Escherichia coli, read-out: MIC EC.
Assay [11] has as its system Pseudomonas aeruginosa CCM 1961. As to the kind of experiment: Antibacterial microdilution broth, PA. Conditions: Pseudomonas aeruginosa, read-out: MIC PA.
Where [12] appears, read: Trichosporon asahii, 1188, 24 h.
[13] abbreviates: Trichosporon asahii, 1188, 48 h.
Where [14] appears, read: Aspergillus fumigatus, 231, 24 h.
Setting [15] is: Aspergillus fumigatus, 231, 48 h.
Where [16] appears, read: Lichtheimia corymbifera, 272, 24 h.
[17] abbreviates: Lichtheimia corymbifera, 272, 48 h.
Setting [18] is: Trichophyton interdigitale, 445, 72 h.
[19] abbreviates: Trichophyton interdigitale, 445, 120 h.

As for `CO[C@H]1/C=C/O[C@@]2(C)Oc3c(C)c(O)c4c(O)c(c(/C=N/N5CCN(C)CC5)c(O)c4c3C2=O)NC(=O)/C(C)=C\C=C\[C@H](C)[C@H](O)[C@@H](C)[C@@H](O)[C@@H](C)[C@H](OC(C)=O)[C@@H]1C` [RFM, rifampicin, reference compound], in assay [1], the “M. smeg. ATCC 607 MIC” value was found to be 1.56 µg/mL and the MIC was in the range of 0.78 to 1.56 µg/mL (≈ 0.948 to 1.9 µM).

As for `O=C(O)c1cn(C2CC2)c2cc(N3CCNCC3)c(F)cc2c1=O` [CPX, ciprofloxacin, reference compound], in assay [1], the MIC was 0.195 µg/mL (≈ 0.589 µM).

With `C[C@@H]1[C@H](O)[C@@H](C)/C=C/C=C/C=C/C=C/C=C/C=C/C=C/[C@H](O[C@@H]2O[C@H](C)[C@@H](O)[C@H](N)[C@@H]2O)C[C@@H]2O[C@](O)(C[C@@H](O)C[C@@H](O)[C@H](O)CC[C@@H](O)C[C@@H](O)CC(=O)O[C@H]1C)C[C@H](O)[C@H]2C(=O)O` [AMPB, amphotericin B, reference compound], the MIC came to 0.12 µM (≈ 0.111 µg/mL) in assay [2] (ATCC44859, 24 h); 0.49 µM (≈ 0.453 µg/mL) in [2] (ATCC44859, 48 h); 1.95 µM (≈ 1.8 µg/mL) in the assay with Candida tropicalis 156 (Candida tropicalis, 156, 24 h); 1.95 µM (≈ 1.8 µg/mL) with Candida tropicalis 156 (Candida tropicalis, 156, 48 h); 1.95 µM (≈ 1.8 µg/mL) in the assay on Candida krusei E28 (E28, 24 h); 1.95 µM (≈ 1.8 µg/mL) with Candida krusei E28 (E28, 48 h). Besides, the MIC in the assay on Candida glabrata 20/I (24 h) was 0.98 µM (≈ 0.906 µg/mL); in the assay on Candida glabrata 20/I (48 h) it was 1.95 µM (≈ 1.8 µg/mL); in the assay on Trichosporon asahii 1188 (setting [12]), 0.49 µM (≈ 0.453 µg/mL); with Trichosporon asahii 1188 (setting [13]), 0.98 µM (≈ 0.906 µg/mL); in [3] (setting [14]), 1.95 µM (≈ 1.8 µg/mL); in assay [3] (setting [15]) it was 1.95 µM (≈ 1.8 µg/mL). The MIC in [4] (setting [16]) was found to be 7.81 µM (≈ 7.22 µg/mL); in assay [4] (setting [17]), 7.81 µM (≈ 7.22 µg/mL); in assay [5] (setting [18]) it was 1.95 µM (≈ 1.8 µg/mL); in [5] (setting [19]), 1.95 µM (≈ 1.8 µg/mL).

Turning to `CC1(C)S[C@@H]2[C@H](NC(=O)Cc3ccccc3)C(=O)N2[C@H]1C(=O)O` [Pen, benzylpenicillin, reference compound], the MIC amounted to 0.24 µM (≈ 0.0803 µg/mL) in [6] (CCM4516, 24 h); 0.24 µM (≈ 0.0803 µg/mL) in assay [6] (CCM4516, 48 h); 125 µM (≈ 41.8 µg/mL) in assay [7] (24 h); 125 µM (≈ 41.8 µg/mL) in [7] (48 h); 31.2 µM (≈ 10.4 µg/mL) in [8] (H6966/08, 24 h); 125 µM (≈ 41.8 µg/mL) in [8] (H6966/08, 48 h). The MIC in assay [9] (SP.J14365/08, 24 h) is 7.81 µM (≈ 2.61 µg/mL); in [9] (SP.J14365/08, 48 h), 15.6 µM (≈ 5.22 µg/mL); in [10] (CCM4517, 24 h) it was 125 µM (≈ 41.8 µg/mL); in assay [10] (CCM4517, 48 h), 125 µM (≈ 41.8 µg/mL); in assay [11] (CCM1961, 72 h), > 500 µM; in assay [11] (CCM1961, 120 h) it was > 500 µM.

`C[C@@H](c1ncncc1F)[C@](O)(Cn1cncn1)c1ccc(F)cc1F` [VOR, voriconazole, reference compound]: the MIC is 0.002 µM (≈ 0.000699 µg/mL) in assay [2] (ATCC44859, 24 h); 0.008 µM (≈ 0.00279 µg/mL) in assay [2] (ATCC44859, 48 h); 62.5 µM (≈ 21.8 µg/mL) with Candida tropicalis 156 (Candida tropicalis, 156, 24 h); 250 µM (≈ 87.3 µg/mL) with Candida tropicalis 156 (Candida tropicalis, 156, 48 h); 0.49 µM (≈ 0.171 µg/mL) in the assay on Candida krusei E28 (E28, 24 h); 1.95 µM (≈ 0.681 µg/mL) in the assay with Candida krusei E28 (E28, 48 h). Also, the MIC with Candida glabrata 20/I (24 h) is 0.24 µM (≈ 0.0838 µg/mL); in the assay on Candida glabrata 20/I (48 h) it was 250 µM (≈ 87.3 µg/mL); with Trichosporon asahii 1188 (setting [12]) it was 0.98 µM (≈ 0.342 µg/mL); with Trichosporon asahii 1188 (setting [13]), 7.81 µM (≈ 2.73 µg/mL); in [3] (setting [14]), 0.49 µM (≈ 0.171 µg/mL); in [3] (setting [15]), 1.95 µM (≈ 0.681 µg/mL). The MIC was 125 µM (≈ 43.7 µg/mL) in assay [4] (setting [16]), 250 µM (≈ 87.3 µg/mL) in assay [4] (setting [17]), 0.061 µM (≈ 0.0213 µg/mL) in assay [5] (setting [18]) and 0.12 µM (≈ 0.0419 µg/mL) in assay [5] (setting [19]).

With `CC1(C)S[C@@H]2[C@H](NC(=O)COc3ccccc3)C(=O)N2[C@H]1C(=O)O` [Phen, phenoxymethylpenicillin, reference compound], the MIC is 0.24 µM (≈ 0.0841 µg/mL) in assay [6] (CCM4516, 24 h); 0.24 µM (≈ 0.0841 µg/mL) in assay [6] (CCM4516, 48 h); 250 µM (≈ 87.6 µg/mL) in assay [7] (24 h); 500 µM (≈ 175 µg/mL) in assay [7] (48 h); 62.5 µM (≈ 21.9 µg/mL) in assay [8] (H6966/08, 24 h); 250 µM (≈ 87.6 µg/mL) in assay [8] (H6966/08, 48 h). The MIC is 7.81 µM (≈ 2.74 µg/mL) in assay [9] (SP.J14365/08, 24 h); 7.81 µM (≈ 2.74 µg/mL) in assay [9] (SP.J14365/08, 48 h); > 500 µM in [10] (CCM4517, 24 h); > 500 µM in assay [10] (CCM4517, 48 h); > 500 µM in assay [11] (CCM1961, 72 h); > 500 µM in [11] (CCM1961, 120 h).
